molecular target: T1, ENPP1 (Homo sapiens, UniProt P22413); assay: Indirect quantitation of 2',3'-cGAMP hydrolysis (AMP-Glo Assay kit); format: biochemical; settings: cGAMP substrate; Ki from IC50 by Cheng-Prusoff; read-out: ENPP1 Inhibition -cGAMP: Ki
T1 sequence (P22413 1-925): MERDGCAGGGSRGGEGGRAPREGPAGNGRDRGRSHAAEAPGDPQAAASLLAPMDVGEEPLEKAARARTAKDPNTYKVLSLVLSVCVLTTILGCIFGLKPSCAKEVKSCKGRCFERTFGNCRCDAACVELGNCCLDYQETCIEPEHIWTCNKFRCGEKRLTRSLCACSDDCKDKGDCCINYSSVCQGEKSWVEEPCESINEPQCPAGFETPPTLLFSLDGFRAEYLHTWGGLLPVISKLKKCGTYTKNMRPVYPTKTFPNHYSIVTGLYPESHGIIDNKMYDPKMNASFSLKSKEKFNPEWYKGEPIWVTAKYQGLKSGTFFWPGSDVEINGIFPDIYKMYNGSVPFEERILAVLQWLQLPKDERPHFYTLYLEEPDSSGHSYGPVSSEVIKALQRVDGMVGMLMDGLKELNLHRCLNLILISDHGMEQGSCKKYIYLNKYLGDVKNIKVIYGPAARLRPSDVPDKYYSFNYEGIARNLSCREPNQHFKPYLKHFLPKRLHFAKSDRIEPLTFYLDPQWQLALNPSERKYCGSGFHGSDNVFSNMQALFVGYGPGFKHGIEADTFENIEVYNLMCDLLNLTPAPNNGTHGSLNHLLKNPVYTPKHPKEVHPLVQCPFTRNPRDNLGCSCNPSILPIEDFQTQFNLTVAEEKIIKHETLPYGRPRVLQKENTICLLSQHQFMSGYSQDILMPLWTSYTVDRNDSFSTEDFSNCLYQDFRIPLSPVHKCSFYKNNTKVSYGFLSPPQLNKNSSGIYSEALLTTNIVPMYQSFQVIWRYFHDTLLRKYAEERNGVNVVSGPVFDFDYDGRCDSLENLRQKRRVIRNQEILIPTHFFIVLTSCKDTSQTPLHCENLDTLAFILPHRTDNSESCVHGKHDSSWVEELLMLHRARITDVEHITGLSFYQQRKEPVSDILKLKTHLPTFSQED

SMILES	Ki [nM]
COc1ccc(C(=O)N2CCC(CCNS(N)(=O)=O)CC2)cc1OC [Example 47, N (2-(1-(3,4-dimethoxybenzoyl)piperidin-4-yl)ethyl)sulfamide]	> 1000
COc1ccc2c(Oc3cc(F)c(NS(N)(=O)=O)cc3F)ccnc2c1 [Example 79, N-(2,5-difluoro-4-((7-methoxyquinolin-4-yl)oxy)phenyl)sulfamide]	< 100
CNc1cc(OC)c(OC)cc1C(=O)N1CCC(CCNS(N)(=O)=O)CC1 [Example 123, N-(2-(1-(4,5-dimethoxy-2-(methylamino)benzoyl)piperidin-4-yl)ethyl)sulfamide]	> 1000
COc1cc2ncnc(N3CCC(CNc4nc5ccccc5[nH]4)CC3)c2cc1OC [Example 251, N-((1-(6,7-dimethoxyquinazolin-4-yl)piperidin-4-yl)methyl)-1H-benzo[d]imidazol-2-amine]	> 1000
COc1cc2ncc(-c3ccc(NS(N)(=O)=O)cc3)nc2cc1OC [Example 270, N-(4-(6,7-dimethoxyquinoxalin-2-yl)phenyl)sulfamide]	> 1000
NS(=O)(=O)Nc1ccc(Oc2ccnc3[nH]ccc23)cc1 [Example 321, N-(4-((1H-pyrrolo[2,3-b]pyridin-4-yl)oxy)phenyl)sulfamide]	> 1000
COc1cc2nccc(N3CCC(CN4CCCNS4(=O)=O)CC3)c2cc1OC [Example 223, 2-((1-(6,7-dimethoxyquinolin-4-yl)piperidin-4-yl)methyl)-1,2,6-thiadiazinane 1,1-dioxide]	> 1000
COc1cc2ncnc(NCc3ccc4c(c3)COB4O)c2cc1OC [Example 325, 5-(((6,7-dimethoxyquinazolin-4-yl)amino)methyl)benzo[c][1,2]oxa borol-1(3H)-ol]	< 100
NS(=O)(=O)NCCC1CCN(c2ncnc3cc(OC(F)(F)F)ccc23)CC1 [Example 209, N-(2-(1-(7-(trifluoromethoxy)quinazolin-4-yl)piperidin-4-yl)ethyl)sulfamide]	> 1000
COc1ccc2c(-c3ccc(CNS(N)(=O)=O)cc3)coc2c1 [Example 348, N-(4-(6-methoxybenzofuran-3-yl)benzyl) sulfamide]	100 to 1000
COc1ccc(NC(=O)C2CCC(CNS(N)(=O)=O)CC2)cc1OC (stereo not drawn) [Example 133, N-(3,4-dimethoxyphenyl)-4-((sulfamoylamino)methyl)cyclohe xane-1-carboxamide]	> 1000
Cc1ncnc(N2CCC(CCNS(N)(=O)=O)CC2)c1C [Example 15, N-(2-(1-(5,6-dimethylpyrimidin-4-yl)piperidin-4-yl)ethyl)sulfamide]	> 1000
N#Cc1cnc2cc3c(cc2c1N1CCC(CCNS(N)(=O)=O)CC1)OCO3 [Example 221, N-(2-(1-(7-cyano-[1,3]dioxolo[4,5-g]quinolin-8-yl)piperidin-4-yl)ethyl)sulfamide]	> 1000
COc1cc2ncnc(N3CC=C(c4ccc5c(c4)COB5O)CC3)c2cc1OC [Example 157, 5-(1-(6,7-dimethoxyquinazolin-4-yl)-1,2,3,6-tetrahydropyridin-4-yl)benzo[c][1,2] oxaborol-1(3H)-ol]	< 100
COc1cc2nccc(Oc3ccc(NS(N)(=O)=O)nc3)c2cc1OC [Example 176, N-(5-((6,7-dimethoxyquinolin-4-yl)oxy)pyridin-2-yl)sulfamide]	> 1000
COc1cc2ncnc(N3CCc4c(cccc4S(=O)(=O)N4CCN(C)CC4)C3)c2cc1OC [Example 41, 6,7-dimethoxy-4-(5-((4-methylpiperazin-1-yl)sulfonyl)-3,4-dihydroisoquinolin-2(1H)-yl)quinazoline]	> 1000
COc1cc2ncn(Cc3ccc(NS(N)(=O)=O)cc3)c(=O)c2cc1OC [Example 165, N-(4-((6,7-dimethoxy-4-oxoquinazolin-3 (4H)-yl)methyl)phenyl) sulfamide]	> 1000
COc1cc2ncc(Oc3ccc(NS(N)(=O)=O)cc3)nc2cc1OC [Example 280, N-(4-((6,7-dimethoxyquinoxalin-2-yl)oxy)phenyl)sulfamide]	> 1000
COc1cc2ncnc(-c3ccc4c(c3)CCC(NS(N)(=O)=O)C4)c2cc1OC (stereo not drawn) [Example 131, N-(6-(6,7-dimethoxyquinazolin-4-yl)-1,2,3,4-tetrahydronaphthalen-2-yl)sulfamide]	> 1000
COc1cc2ncnc(N3CCC(CCNC(N)=O)CC3)c2cc1OC [Example 117, 1-(2-(1-(6,7-dimethoxyquinazolin-4-yl)piperidin-4-yl)ethyl)urea]	100 to 1000

SMILES	Ki [nM]
COc1cc2ncnc(N3CCC(CCNS(=O)(=O)C(F)(F)F)CC3)c2cc1OC [Example 146, N-(2-(1-(6,7-dimethoxyquinazolin-4-yl)piperidin-4-yl)ethyl)-1,1,1-trifluoromethanesulfonamide]	100 to 1000
COc1cc2ncnc(Nc3ccc(N4CCNS4(=O)=O)cc3)c2cc1OC [Example 243, 2-(4-((6,7-dimethoxyquinazolin-4-yl)amino)phenyl)-1,2,5-thiadiazolidine 1,1-dioxide]	> 1000
COc1ccc(-c2cc(N3CCC(CNS(N)(=O)=O)CC3)ncn2)cc1OC [Example 37, N-((1-(6-(3,4-dimethoxyphenyl)pyrimidin-4-yl)piperidin-4-yl)methyl)sulfamide]	> 1000
COc1cc2ncc(Nc3ccc(NS(N)(=O)=O)cc3)nc2cc1OC [Example 286, N-(4-((6,7-dimethoxyquinoxalin-2-yl)amino)phenyl)sulfamide]	> 1000
COc1ccc2c(Oc3ccc(N(C4CC4)S(N)(=O)=O)cc3)ccnc2c1 [Example 310, N-cyclopropyl-N-(4-((7-methoxyquinolin-4-yl)oxy)phenyl)sulfamide]	< 100
NS(=O)(=O)NCCC1CCN(c2ccnc3cc4c(cc23)OCO4)CC1 [Example 215, N-(2-(1-([1,3]dioxolo[4,5-g]quinolin-8-yl)piperidin-4-yl)ethyl)sulfamide]	> 1000
COc1cc2ncnc(N3CCC(Cn4c(N)nc5ccccc54)CC3)c2cc1OC [Example 252, 1-((1-(6,7-dimethoxyquinazolin-4-yl)piperidin-4-yl)methyl)-1H-benzo[d]imidazol-2-amine]	> 1000
COc1cc2nc(-c3ccccc3)nc(N3CCC(CCNS(N)(=O)=O)CC3)c2cc1OC [Example 8, N-(2-(1-(6,7-dimethoxy-2-phenylquinazolin-4-yl)piperidin-4-yl)ethyl)sulfamide]	> 1000
COc1cc2nccc(N3CCC4(CCNC4=O)CC3)c2cc1OC [Example 187, 8-(6,7-dimethoxyquinolin-4-yl)-2,8-diazaspiro[4.5]decan-1-one]	> 1000
COc1cc(NC(C)=O)c(C(=O)N2CCC(CCNS(N)(=O)=O)CC2)cc1OC [Example 44, N-(4,5-dimethoxy-2-(4-(2-(sulfamoylamino)ethyl)piperidine-1-carbonyl)phenyl)acetamide]	> 1000
COc1cc2ncnc(N3CCC(CCNS(=O)(=O)c4ccccc4)CC3)c2cc1OC [Example 116, N-(2-(1-(6,7-dimethoxyquinazolin-4-yl)piperidin-4-yl)ethyl)benzenesulfonamide]	> 1000
NS(=O)(=O)NCCC1CCN(c2ncnc3ccc(OC(F)(F)F)cc23)CC1 [Example 194, N-(2-(1-(6-(trifluoromethoxy)quinazolin-4-yl)piperidin-4-yl)ethyl)sulfamide]	> 1000
COc1cc2ncnc(Nc3ccc(CNS(N)(=O)=O)cc3)c2cc1OC [Example 234, N-(4-((6,7-dimethoxyquinazolin-4-yl)amino)benzyl)sulfamide]	> 1000
COc1ccc(-c2cc(N3CCC(NS(N)(=O)=O)CC3)ncn2)cc1OC [Example 36, N-(1-(6-(3,4-dimethoxyphenyl)pyrimidin-4-yl)piperidin-4-yl)sulfamide]	> 1000
COc1ccc2c(Oc3ccc(S(N)(=O)=O)cc3)c(C#N)cnc2c1 [Example 327, 4-((3-cyano-7-methoxyquinolin-4-yl)oxy)benzenesulfonamide]	< 100
COc1cc2nccc(Oc3ccc(NS(=O)(=O)C(F)(F)F)cc3)c2cc1OC [Example 162, N-(4-((6,7-dimethoxyquinolin-4-yl)oxy)phenyl)-1,1,1-trifluoromethanesulfonamide]	< 100
COc1ccc2nccc(Oc3ccc(NS(N)(=O)=O)cc3)c2n1 [Example 346, N-(4-((6-methoxy-1,5-naphthyridin-4-yl)oxy)phenyl)sulfamide]	100 to 1000
COc1cc2nccc(C(=O)N3CCC(CCNS(N)(=O)=O)CC3)c2cc1OC [Example 154, N-(2-(1-(6,7-dimethoxyquinoline-4-carbonyl)piperidin-4-yl)ethyl)sulfamide]	> 1000
COc1ccc(-c2cc(N3CCC(CCNS(N)(=O)=O)CC3)ncn2)cc1OC [Example 38, N-(2-(1-(6-(3,4-dimethoxyphenyl)pyrimidin-4-yl)piperidin-4-yl)ethyl)sulfamide]	> 1000

Reference: US20230183239A1, “ECTONUCLEOTIDE PYROPHOSPHATASE-PHOSPHODIESTERASE 1 (ENPP-1) INHIBITORS AND USES THEREOF” (AbbVie Inc., priority 2017, published 2023)
